Data as given in patent publication US12187728B2 (Raze Therapeutics, Inc., priority 2015, dated 2025).

Biological target: T1, Human MTHFD2 (Homo sapiens, UniProt P13995)
T1 construct: residues 36-350 in Uniport ID P13995; His6 (N); made in house; host or cells: E. coli
T1 sequence (P13995 36-350): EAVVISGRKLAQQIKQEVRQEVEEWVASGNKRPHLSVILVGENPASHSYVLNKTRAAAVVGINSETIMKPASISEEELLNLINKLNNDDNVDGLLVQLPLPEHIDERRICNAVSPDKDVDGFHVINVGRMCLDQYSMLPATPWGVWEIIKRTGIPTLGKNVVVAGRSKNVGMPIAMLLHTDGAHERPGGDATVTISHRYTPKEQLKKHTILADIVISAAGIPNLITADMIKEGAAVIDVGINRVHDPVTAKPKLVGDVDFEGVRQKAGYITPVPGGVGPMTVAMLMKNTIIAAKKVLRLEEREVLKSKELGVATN
Experiment: MTHFD2 Activity Assay (dehydrogenase activity, diaphorase/resazurin coupled fluorescence)
Type: biochemical
Conditions: inhibitory activity (IC50 and/or binding constant); 0.2 nM MTHFD2, 11 concentrations
Method in brief: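 Steps: compound + 0.2 nM enzyme, 15 min, pH 8.0 Hepes buffer; add 70 μM CH2-THF, 1 mM NAD+, 100 μM resazurin, diaphorase; 30 min; quench with EDTA; read fluorescence. Data normalized to DMSO (100%) and no-enzyme (0%) wells.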

IC50 [µM] | Compound
0.01 to 1 | CNC(=O)CCc1cccc(Nc2nc3c(c(=O)n(Cc4cc5c(Cl)cccc5[nH]4)c(=O)n3C)n2C)n1 [Example 330, 3-(6-(1-((4-chloro-1H-indol-2-yl)methyl)-3,7-dimethyl-2,6-dioxo-2,3,6,7-tetrahydro-1H-purin-8-ylamino)pyridin-2-yl)-N-methylpropanamide]
0.01 to 1 | Cn1c(C2CCNC2)nc2c1c(=O)n(Cc1cc3c(Cl)cccc3[nH]1)c(=O)n2C (stereo not drawn) [Example 425, 1-[(4-chloro-1H-indol-2-yl)methyl]-3,7-dimethyl-8-pyrrolidin-3-yl-purine-2,6-dione]
0.01 to 1 | Cn1c(Nc2cccc(CCC(N)=O)n2)nc2c1c(=O)n(Cc1cc3c(Cl)cccc3[nH]1)c(=O)n2C [Example 304, 3-(6-(1-((4-chloro-1H-indol-2-yl)methyl)-3,7-dimethyl-2,6-dioxo-2,3,6,7-tetrahydro-1H-purin-8-ylamino)pyridin-2-yl)propanamide]
1 to 5 | Cn1c(-n2ncnc2N)nc2c1c(=O)n(Cc1ccc(Cl)c(Cl)c1)c(=O)n2C [Example 143, 8-(5-amino-1H-1,2,4-triazol-1-yl)-1-(3,4-dichlorobenzyl)-3,7-dimethyl-1H-purine-2,6(3H,7H)-dione]
0.01 to 1 | Cn1c(NC2CCNC(=O)C2)nc2c1c(=O)n(Cc1cc3ccccc3[nH]1)c(=O)n2C (racemic) [Example 215, (±)-1-((1H-indol-2-yl)methyl)-3,7-dimethyl-8-(2-oxopiperidin-4-ylamino)-1H-purine-2,6(3H,7H)-dione]
0.01 to 1 | Cn1c(C2CCNC2)nc2c1c(=O)n(Cc1[nH]c3cccc(Cl)c3c1Cl)c(=O)n2C (stereo not drawn) [Example 423, 1-((3,4-dichloro-1H-indol-2-yl)methyl)-3,7-dimethyl-8-(pyrrolidin-3-yl)-1H-purine-2,6(3H,7H)-dione]
1 to 5 | Cc1ccc2[nH]c(Cn3c(=O)c4c(nc(N5CC(O)C5)n4C)n(C)c3=O)cc2c1 [Example 194, 8-(3-hydroxyazetidin-1-yl)-3,7-dimethyl-1-((5-methyl-1H-indol-2-yl)methyl)-1H-purine-2,6(3H,7H)-dione]
1 to 5 | Cn1cnc2c1c(=O)n(Cc1ccc(Cl)c(Cl)c1)c(=O)n2C [Example 152, 1-(3,4-dichlorobenzyl)-3,7-dimethyl-1H-purine-2,6(3H,7H)-dione]
> 10 | Cn1c(=O)n(Cc2ccc(Cl)c(Cl)c2)c(=O)c2c1ncn2CC(N)=O [Example 246, 2-(1-(3,4-dichlorobenzyl)-3-methyl-2,6-dioxo-2,3-dihydro-1H-purin-7(6H)-yl)acetamide]
1 to 5 | Cc1ccc2[nH]c(Cn3c(=O)c4c(nc(CCN5CCOCC5)n4C)n(C)c3=O)cc2c1 [Example 227, 3,7-dimethyl-1-((5-methyl-1H-indol-2-yl)methyl)-8-(2-morpholinoethyl)-1H-purine-2,6(3H,7H)-dione]
0.01 to 1 | Cn1c([C@@H](N)Cc2ccncc2)nc2c1c(=O)n(Cc1cc3c(Cl)cccc3[nH]1)c(=O)n2C [Example 449, (S)-8-(1-amino-2-(pyridin-4-yl)ethyl)-1-((4-chloro-1H-indol-2-yl)methyl)-3,7-dimethyl-1H-purine-2,6(3H,7H)-dione]
0.01 to 1 | C[C@@H](O)CNc1nc2c(c(=O)n(Cc3ccc(Cl)c(Cl)c3)c(=O)n2C)n1C [Example 9, 1-[(3,4-dichlorophenyl)methyl]-8-{[(2R)-2-hydroxypropyl]amino}-3,7-dimethyl-2,3,6,7-tetrahydro-1H-purine-2,6-dione]
5 to 10 | Cn1c(C(N)C2COC2)nc2c1c(=O)n(Cc1cc3c(Cl)cccc3[nH]1)c(=O)n2C (stereo not drawn) [Example 467, 8-[amino(oxetan-3-yl)methyl]-1-[(4-chloro-1H-indol-2-yl)methyl]-3,7-dimethyl-purine-2,6-dione]
0.01 to 1 | Cn1c(Nc2ccnc([C@H]3C[C@@H]3C(=O)O)c2)nc2c1c(=O)n(Cc1ccc(Cl)c(Cl)c1)c(=O)n2C (single isomer, unassigned) [Example 301, (1S,2S)-2-(4-((1-(3,4-dichlorobenzyl)-3,7-dimethyl-2,6-dioxo-2,3,6,7-tetrahydro-1H-purin-8-yl)amino)pyridin-2-yl)cyclopropanecarboxylic acid or (1R,2R)-2-(4-((1-(3,4-dichlorobenzyl)-3,7-dimethyl-2,6-dioxo-2,3,6,7-tetrahydro-1H-purin-8-yl)amino)pyridin-2-yl)cyclopropanecarboxylic acid]
1 to 5 | COc1cc(Cn2c(=O)c3c(nc(NCCCO)n3C)n(C)c2=O)ccc1Cl [Example 96, 1-[(4-chloro-3-methoxyphenyl)methyl]-8-[(3-hydroxypropyl)amino]-3,7-dimethyl-2,3,6,7-tetrahydro-1H-purine-2,6-dione]
0.01 to 1 | CN(C)C(=O)CCc1cccc(Nc2nc3c(c(=O)n(Cc4cc5c(Cl)cccc5[nH]4)c(=O)n3C)n2C)n1 [Example 329, 3-(6-(1-((4-chloro-1H-indol-2-yl)methyl)-3,7-dimethyl-2,6-dioxo-2,3,6,7-tetrahydro-1H-purin-8-ylamino)pyridin-2-yl)-N,N-dimethylpropanamide]
0.01 to 1 | Cn1c(N[C@H]2CC[C@@H](O)C2)nc2c1c(=O)n(Cc1cc3ccccc3[nH]1)c(=O)n2C (racemic) [Example 155, (±)-1-((1H-indol-2-yl)methyl)-8-((cis)-3-hydroxycyclopentylamino)-3,7-dimethyl-1H-purine-2,6(3H,7H)-dione]
0.01 to 1 | Cn1c(Nc2cccnn2)nc2c1c(=O)n(Cc1cc3ccccc3[nH]1)c(=O)n2C [Example 201, 1-((1H-indol-2-yl)methyl)-3,7-dimethyl-8-(pyridazin-3-ylamino)-1H-purine-2,6(3H,7H)-dione]
0.01 to 1 | Cn1c(NS(C)(=O)=O)nc2c1c(=O)n(Cc1cc3c(Cl)cccc3[nH]1)c(=O)n2C [Example 336, N-[1-[(4-chloro-1H-indol-2-yl)methyl]-3,7-dimethyl-2,6-dioxo-purin-8-yl]methanesulfonamide]
0.01 to 1 | Cn1c(Nc2ccnc(C3CC(C(=O)O)C3)c2)nc2c1c(=O)n(Cc1ccc(Cl)c(Cl)c1)c(=O)n2C (stereo not drawn) [Example 309, 3-(4-(1-(3,4-dichlorobenzyl)-3,7-dimethyl-2,6-dioxo-2,3,6,7-tetrahydro-1H-purin-8-ylamino)pyridin-2-yl)cyclobutanecarboxylic acid]
1 to 5 | Cn1c(N[C@H]2CCC(=O)NC2)nc2c1c(=O)n(Cc1cc3ccccc3[nH]1)c(=O)n2C (single isomer, unassigned) [Example 228, (S)-1-((1H-indol-2-yl)methyl)-3,7-dimethyl-8-(6-oxopiperidin-3-ylamino)-1H-purine-2,6(3H,7H)-dione or (R)-1-((1H-indol-2-yl)methyl)-3,7-dimethyl-8-(6-oxopiperidin-3-ylamino)-1H-purine-2,6(3H,7H)-dione]
1 to 5 | Cn1c(NCc2ccncc2)nc2c1c(=O)n(Cc1ccc(Cl)c(Cl)c1)c(=O)n2C [Example 118, 1-(3,4-dichlorobenzyl)-3,7-dimethyl-8-(pyridin-4-ylmethylamino)-1H-purine-2,6(3H,7H)-dione]
0.01 to 1 | Cn1c(NC2COC2)nc2c1c(=O)n(Cc1ccc(Cl)c(Cl)c1)c(=O)n2C [Example 245, 1-(3,4-dichlorobenzyl)-3,7-dimethyl-8-(oxetan-3-ylamino)-1H-purine-2,6(3H,7H)-dione]
0.01 to 1 | Cn1c(Nc2ccncc2)nc2c1c(=O)n(Cc1cc3c(Cl)ccc(F)c3[nH]1)c(=O)n2C [Example 474, 1-((4-chloro-7-fluoro-1H-indol-2-yl)methyl)-3,7-dimethyl-8-(pyridin-4-ylamino)-1H-purine-2,6(3H,7H)-dione]
1 to 5 | Cn1cnc2c1c(=O)n(Cc1cc3ccccc3n1C)c(=O)n2C [Example 235, 3,7-dimethyl-1-((1-methyl-1H-indol-2-yl)methyl)-1H-purine-2,6(3H,7H)-dione]
0.01 to 1 | Cn1c(Nc2ccc(C(N)=O)cc2)nc2c1c(=O)n(Cc1ccc(Cl)c(Cl)c1)c(=O)n2C [Example 313, 4-[[1-[(3,4-dichlorophenyl)methyl]-3,7-dimethyl-2,6-dioxo-purin-8-yl]amino]benzamide]
5 to 10 | CCn1c(=O)n(Cc2ccc(Cl)c(Cl)c2)c(=O)c2c1ncn2C [Example 250, 1-(3,4-dichlorobenzyl)-3-ethyl-7-methyl-1H-purine-2,6(3H,7H)-dione]
0.01 to 1 | Cn1c(N[C@H]2CC[C@H](O)C2)nc2c1c(=O)n(Cc1ccc(Cl)c(Cl)c1)c(=O)n2C (single isomer, unassigned) [Example 70, 1-(3,4-dichlorobenzyl)-8-((1S,3S)-3-hydroxycyclopentylamino)-3,7-dimethyl-1H-purine-2,6(3H,7H)-dione or 1-(3,4-dichlorobenzyl)-8-((1R,3R)-3-hydroxycyclopentylamino)-3,7-dimethyl-1H-purine-2,6(3H,7H)-dione]
0.01 to 1 | Cn1c(NC(CO)CO)nc2c1c(=O)n(Cc1ccc(Cl)c(Cl)c1)c(=O)n2C [Example 53, 1-[(3,4-dichlorophenyl)methyl]-8-[(1,3-dihydroxypropan-2-yl)amino]-3,7-dimethyl-2,3,6,7-tetrahydro-1H-purine-2,6-dione]
5 to 10 | C[C@@H](O)CNc1nc2c(c(=O)n(Cc3ccc(Cl)cc3)c(=O)n2C)n1C [Example 17, 1-[(4-chlorophenyl)methyl]-8-{[(2R)-2-hydroxypropyl]amino}-3,7-dimethyl-2,3,6,7-tetrahydro-1H-purine-2,6-dione]
